In brackets after ≈: the same amount, converted by molar mass.
Columns and labels:
[1] = target: T1, Sodium channel protein type 9 subunit alpha (Homo sapiens, UniProt Q15858); experiment: Inhibition of recombinant human Nav 1.7 expressed in HEK293F cells at […] holding potential by manual voltage clamp electrophysiology method; type: cell-based
Rattus norvegicus [2] = species on record: Rattus norvegicus; experiment: cells; settings: Sprague-Dawley
physchem = settings: phosphate buffer
[3] = target: Sodium channel protein type 5 subunit alpha (Homo sapiens, UniProt Q14524)
[4] = rat, in vivo, po
[5] = Volume of distribution at steady state in orally dosed monkey; type: ADME, organism-based, Macaca mulatta; settings: rhesus monkey, in vivo, po
[6] = Drug concentration in brain of monoiodoacetate-induced acute Sprague-Dawley rat model of osteoarthritis at 3 mg/kg, po administered for 5 days and measured after 15 mins; type: ADME, organism-based; settings: time 5 day, read-out: Ct
[7] = Cardiotoxicity in anesthetized rat CV model assessed as effect on QRS complex upto 31 uM by ECG analysis; type: toxicity
[8] = Inhibition of rat Nav 1.7 by FRET based membrane potential assay
[9] = Drug concentration in brain of monoiodoacetate-induced chronic Sprague-Dawley rat model of osteoarthritis at 1 mg/kg, po administered twice daily for 5 days; type: ADME, organism-based; settings: time 5 day, read-out: Ct
[10] = Oral bioavailability in monkey; type: ADME, organism-based, Macaca mulatta; settings: rhesus monkey, in vivo
[11] = Half-life in orally dosed monkey; type: ADME, organism-based, Macaca mulatta; settings: rhesus monkey, in vivo; route po
[12] = Effect on locomotor activity in rat by locomotor assay; type: toxicity
[13] = Cardiotoxicity in anesthetized rat CV model assessed as effect on PR interval upto 31 uM by ECG analysis; type: toxicity
[14] = Ratio of free drug concentration in brain to plasma of rat; type: ADME, cell-free; settings: brain and plasma
[15] = Half-life in orally dosed dog; type: ADME, organism-based, Canis lupus familiaris; settings: in vivo, route po
[16] = Oral bioavailability in dog; type: ADME, organism-based, Canis lupus familiaris; settings: in vivo
[17] = target: T1, Sodium channel protein type 9 subunit alpha
[18] = Drug concentration in plasma of monoiodoacetate-induced chronic Sprague-Dawley rat model of osteoarthritis at 10 mg/kg, po administered twice for 1 day; type: ADME, organism-based
[19] = Drug concentration in brain of monoiodoacetate-induced chronic Sprague-Dawley rat model of osteoarthritis at 0.3 mg/kg, po administered twice daily for 5 days; type: ADME, organism-based; settings: time 5 day, read-out: Ct
[20] = Drug concentration in plasma of monoiodoacetate-induced chronic Sprague-Dawley rat model of osteoarthritis at 10 mg/kg, po administered twice daily for 5 days; type: ADME, organism-based; settings: time 5 day
[21] = Drug concentration in rat brain assessed as free fraction; type: ADME, tissue-based
[22] = Drug exposure in plasma of rat; type: ADME; settings: in vivo
[23] = Clearance in iv dosed dog; type: ADME, organism-based, Canis lupus familiaris; settings: in vivo
[24] = Drug concentration in brain of monoiodoacetate-induced acute Sprague-Dawley rat model of osteoarthritis at 10 mg/kg, po administered for 5 days and measured after 15 mins; type: ADME, organism-based; settings: time 5 day, read-out: Ct
[25] = Drug concentration in plasma of monoiodoacetate-induced acute Sprague-Dawley rat model of osteoarthritis at 30 mg/kg, po administered for 5 days and measured after 15 mins; type: ADME, organism-based; settings: time 5 day
[26] = Drug concentration in plasma of monoiodoacetate-induced chronic Sprague-Dawley rat model of osteoarthritis at 0.3 mg/kg, po administered twice daily for 5 days; type: ADME, organism-based; settings: time 5 day
in vivo [27] = settings: Sprague-Dawley, rat, po
[28] = Drug concentration in plasma of monoiodoacetate-induced chronic Sprague-Dawley rat model of osteoarthritis at 3 mg/kg, po administered twice daily for 5 days; type: ADME, organism-based; settings: time 5 day
[29] = Drug concentration in plasma of monoiodoacetate-induced chronic Sprague-Dawley rat model of osteoarthritis at 0.3 mg/kg, po administered twice for 1 day; type: ADME, organism-based
[30] = Cardiotoxicity in conscious dog CV model assessed as effect on QRS complex upto 47 uM by ECG analysis; type: toxicity, Canis lupus familiaris
[31] = Drug concentration in plasma of monoiodoacetate-induced chronic Sprague-Dawley rat model of osteoarthritis at 3 mg/kg, po administered twice for 1 day; type: ADME, organism-based
[32] = Drug concentration in plasma of monoiodoacetate-induced acute Sprague-Dawley rat model of osteoarthritis at 3 mg/kg, po administered for 5 days and measured after 15 mins; type: ADME, organism-based; settings: time 5 day
[33] = Drug concentration in plasma of monoiodoacetate-induced chronic Sprague-Dawley rat model of osteoarthritis at 1 mg/kg, po administered twice daily for 5 days; type: ADME, organism-based; settings: time 5 day
[34] = Clearance in iv dosed monkey; type: ADME, organism-based, Macaca mulatta; settings: rhesus monkey, in vivo
[35] = Drug concentration in brain of monoiodoacetate-induced chronic Sprague-Dawley rat model of osteoarthritis at 3 mg/kg, po administered twice daily for 5 days; type: ADME, organism-based; settings: time 5 day, read-out: Ct
[36] = Drug concentration in rat plasma assessed as free fraction; type: ADME, cell-free
[37] = Drug concentration in brain of monoiodoacetate-induced acute Sprague-Dawley rat model of osteoarthritis at 30 mg/kg, po administered for 5 days and measured after 15 mins; type: ADME, organism-based; settings: time 5 day, read-out: Ct
Rattus norvegicus [38] = species on record: Rattus norvegicus; experiment: animal or person; settings: Sprague-Dawley
[39] = Drug concentration in plasma of monoiodoacetate-induced chronic Sprague-Dawley rat model of osteoarthritis at 1 mg/kg, po administered twice for 1 day; type: ADME, organism-based
[40] = Drug concentration in plasma of monoiodoacetate-induced acute Sprague-Dawley rat model of osteoarthritis at 10 mg/kg, po administered for 5 days and measured after 15 mins; type: ADME, organism-based; settings: time 5 day
[41] = Volume of distribution at steady state in orally dosed dog; type: ADME, organism-based, Canis lupus familiaris; settings: in vivo, po
[42] = Cardiotoxicity in conscious dog CV model assessed as effect on PR interval upto 47 uM by ECG analysis; type: toxicity, Canis lupus familiaris
in vivo [43] = settings: Sprague-Dawley, rat, iv
[44] = Drug concentration in brain of monoiodoacetate-induced chronic Sprague-Dawley rat model of osteoarthritis at 10 mg/kg, po administered twice daily for 5 days; type: ADME, organism-based; settings: time 5 day, read-out: Ct
[45] = Effect on locomotor activity in rat by rotorod test; type: toxicity
Rattus norvegicus [46] = species on record: Rattus norvegicus; experiment: animal or person; settings: Sprague-Dawley; remark: listed apart in the source
in vivo [47] = settings: Sprague-Dawley, rat, po; remark: listed apart in the source
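Wherever solubility is given: determined using a high-throughput solubility method.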

T1 sequence (Q15858 whole entry, looked up): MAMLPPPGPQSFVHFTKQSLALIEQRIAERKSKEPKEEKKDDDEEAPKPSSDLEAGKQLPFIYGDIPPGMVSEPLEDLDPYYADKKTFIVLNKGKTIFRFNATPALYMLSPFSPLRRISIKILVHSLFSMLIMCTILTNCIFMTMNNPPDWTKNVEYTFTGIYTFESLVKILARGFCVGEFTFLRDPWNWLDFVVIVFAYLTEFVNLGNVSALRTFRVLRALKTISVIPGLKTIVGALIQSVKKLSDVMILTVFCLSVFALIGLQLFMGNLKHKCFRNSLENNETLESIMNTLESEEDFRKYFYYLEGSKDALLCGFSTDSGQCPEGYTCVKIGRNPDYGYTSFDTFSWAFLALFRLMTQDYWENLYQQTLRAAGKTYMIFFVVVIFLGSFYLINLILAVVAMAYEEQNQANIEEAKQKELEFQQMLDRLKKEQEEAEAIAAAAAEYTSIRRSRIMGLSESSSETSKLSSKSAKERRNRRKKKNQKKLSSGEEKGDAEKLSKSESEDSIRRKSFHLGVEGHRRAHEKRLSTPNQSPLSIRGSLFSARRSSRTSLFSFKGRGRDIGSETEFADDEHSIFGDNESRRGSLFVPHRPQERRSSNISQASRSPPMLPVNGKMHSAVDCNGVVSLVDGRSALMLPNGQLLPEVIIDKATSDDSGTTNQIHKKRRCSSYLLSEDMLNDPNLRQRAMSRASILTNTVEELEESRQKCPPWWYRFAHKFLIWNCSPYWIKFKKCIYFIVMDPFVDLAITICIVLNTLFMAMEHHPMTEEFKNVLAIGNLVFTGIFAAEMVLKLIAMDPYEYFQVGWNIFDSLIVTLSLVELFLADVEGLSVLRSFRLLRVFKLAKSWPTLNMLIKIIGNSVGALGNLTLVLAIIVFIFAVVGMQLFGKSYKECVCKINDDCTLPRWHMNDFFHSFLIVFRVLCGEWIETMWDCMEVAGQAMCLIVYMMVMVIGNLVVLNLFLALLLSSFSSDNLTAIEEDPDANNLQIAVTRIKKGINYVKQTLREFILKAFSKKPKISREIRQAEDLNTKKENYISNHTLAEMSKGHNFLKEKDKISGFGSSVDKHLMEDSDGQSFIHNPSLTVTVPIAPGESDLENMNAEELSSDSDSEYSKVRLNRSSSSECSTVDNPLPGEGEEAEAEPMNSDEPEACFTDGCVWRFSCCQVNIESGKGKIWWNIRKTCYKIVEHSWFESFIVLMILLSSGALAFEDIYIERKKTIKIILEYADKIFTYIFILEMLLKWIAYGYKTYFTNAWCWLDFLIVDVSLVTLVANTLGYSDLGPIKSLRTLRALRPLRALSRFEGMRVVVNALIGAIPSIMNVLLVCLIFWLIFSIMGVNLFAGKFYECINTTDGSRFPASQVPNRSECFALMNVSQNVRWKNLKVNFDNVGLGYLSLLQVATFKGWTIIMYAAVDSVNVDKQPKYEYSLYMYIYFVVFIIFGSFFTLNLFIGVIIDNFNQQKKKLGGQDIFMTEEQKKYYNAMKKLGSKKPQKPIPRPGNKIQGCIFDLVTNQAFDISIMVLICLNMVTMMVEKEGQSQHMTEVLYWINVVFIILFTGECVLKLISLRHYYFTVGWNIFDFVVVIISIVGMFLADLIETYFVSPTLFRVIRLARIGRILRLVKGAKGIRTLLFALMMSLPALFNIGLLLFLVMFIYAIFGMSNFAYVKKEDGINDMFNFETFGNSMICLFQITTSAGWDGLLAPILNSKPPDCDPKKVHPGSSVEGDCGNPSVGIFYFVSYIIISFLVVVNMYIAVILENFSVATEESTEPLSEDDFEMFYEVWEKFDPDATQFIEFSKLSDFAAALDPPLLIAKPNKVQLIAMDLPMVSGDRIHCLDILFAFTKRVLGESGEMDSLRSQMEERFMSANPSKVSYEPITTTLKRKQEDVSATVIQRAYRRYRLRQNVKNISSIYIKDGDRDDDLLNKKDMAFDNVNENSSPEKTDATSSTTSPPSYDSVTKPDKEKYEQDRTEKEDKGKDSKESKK
Sodium channel protein type 5 subunit alpha, sequence (Q14524 whole entry): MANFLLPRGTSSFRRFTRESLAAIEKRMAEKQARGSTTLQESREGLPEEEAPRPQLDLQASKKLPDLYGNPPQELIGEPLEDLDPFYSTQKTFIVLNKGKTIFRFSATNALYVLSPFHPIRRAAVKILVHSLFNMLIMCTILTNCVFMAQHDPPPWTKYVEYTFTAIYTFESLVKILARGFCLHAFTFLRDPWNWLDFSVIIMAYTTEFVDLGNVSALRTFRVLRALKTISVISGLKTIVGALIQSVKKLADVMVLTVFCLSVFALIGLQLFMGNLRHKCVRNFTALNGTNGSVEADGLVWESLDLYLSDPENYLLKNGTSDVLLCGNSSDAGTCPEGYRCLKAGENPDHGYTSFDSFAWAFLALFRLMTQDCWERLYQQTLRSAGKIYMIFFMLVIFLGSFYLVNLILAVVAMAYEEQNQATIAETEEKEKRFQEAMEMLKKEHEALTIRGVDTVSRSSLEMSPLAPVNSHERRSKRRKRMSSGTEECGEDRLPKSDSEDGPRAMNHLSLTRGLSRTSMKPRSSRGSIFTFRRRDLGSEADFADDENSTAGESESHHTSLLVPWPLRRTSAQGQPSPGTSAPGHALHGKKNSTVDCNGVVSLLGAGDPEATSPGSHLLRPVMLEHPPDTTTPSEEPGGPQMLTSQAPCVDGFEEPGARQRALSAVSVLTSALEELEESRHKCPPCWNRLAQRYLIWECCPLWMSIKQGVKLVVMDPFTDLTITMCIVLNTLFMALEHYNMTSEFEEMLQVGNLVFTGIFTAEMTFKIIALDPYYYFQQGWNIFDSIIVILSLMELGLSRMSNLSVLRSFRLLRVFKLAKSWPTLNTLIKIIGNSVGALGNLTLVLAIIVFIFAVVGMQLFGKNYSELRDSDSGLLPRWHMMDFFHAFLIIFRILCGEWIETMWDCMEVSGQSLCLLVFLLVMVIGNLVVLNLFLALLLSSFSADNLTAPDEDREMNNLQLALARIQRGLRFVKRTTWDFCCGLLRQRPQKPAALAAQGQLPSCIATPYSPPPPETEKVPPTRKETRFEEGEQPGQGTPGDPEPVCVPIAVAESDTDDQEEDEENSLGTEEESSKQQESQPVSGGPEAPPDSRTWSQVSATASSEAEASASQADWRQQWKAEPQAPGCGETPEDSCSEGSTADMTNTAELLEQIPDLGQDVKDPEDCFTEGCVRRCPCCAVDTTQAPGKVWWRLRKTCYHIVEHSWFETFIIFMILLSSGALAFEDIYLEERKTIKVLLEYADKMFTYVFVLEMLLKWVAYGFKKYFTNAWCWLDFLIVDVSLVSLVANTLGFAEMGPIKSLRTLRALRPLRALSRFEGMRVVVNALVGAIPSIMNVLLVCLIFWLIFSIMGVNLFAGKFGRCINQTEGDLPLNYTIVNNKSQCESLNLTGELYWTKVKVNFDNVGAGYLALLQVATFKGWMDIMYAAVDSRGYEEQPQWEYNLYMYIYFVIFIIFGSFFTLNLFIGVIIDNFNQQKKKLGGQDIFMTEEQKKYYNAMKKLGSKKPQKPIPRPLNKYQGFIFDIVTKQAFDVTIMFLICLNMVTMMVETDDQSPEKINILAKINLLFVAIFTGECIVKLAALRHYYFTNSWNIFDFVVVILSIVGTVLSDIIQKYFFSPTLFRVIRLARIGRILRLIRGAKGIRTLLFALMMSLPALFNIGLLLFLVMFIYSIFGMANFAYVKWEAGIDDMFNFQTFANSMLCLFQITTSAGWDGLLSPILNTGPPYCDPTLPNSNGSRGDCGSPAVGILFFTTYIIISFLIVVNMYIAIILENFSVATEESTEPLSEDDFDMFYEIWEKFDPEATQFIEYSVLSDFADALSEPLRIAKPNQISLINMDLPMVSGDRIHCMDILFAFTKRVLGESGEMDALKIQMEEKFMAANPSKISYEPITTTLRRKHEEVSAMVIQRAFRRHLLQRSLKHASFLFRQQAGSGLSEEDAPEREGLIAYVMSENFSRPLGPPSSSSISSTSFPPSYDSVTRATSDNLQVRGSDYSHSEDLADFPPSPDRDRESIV

O=C(c1ccc2cc(Oc3ccc(C(F)(F)F)cn3)ccc2n1)N1CC[C@@H](F)C1
IC50 [1]: 1.1 µM
EC50 (Rattus norvegicus [2]): 4 µg/mL (≈ 9.87 µM)
solubility (physchem): 84 µM (≈ 34 µg/mL)
IC50 [3]: 33 µM
Vdss [4]: 4.06 L/kg
Vdss [5]: 3.6 L/kg
concentration at 120 h [6]: 1530 ng/mL
Activity [7]: Non-Toxic
IC50 [8]: 2.86 µM
concentration at 120 h [9]: 260 ng/mL
bioavailability [10]: 110%
half-life [11]: 7.6 h
Activity [12]: Non-Toxic
Activity [13]: Non-Toxic
Kp uu [14]: 0.29
half-life [15]: 13.4 h
bioavailability [16]: 85%
IC50 [17]: 3.14 µM
concentration at 24 h [18]: 3440 ng/mL
concentration at 120 h [19]: 110 ng/mL
concentration at 120 h [20]: 5480 ng/mL
fraction unbound [21]: 0.015
Cp [22]: 11200 ng/mL
clearance [23]: 5 mL/min/kg
concentration at 120 h [24]: 5240 ng/mL
concentration at 120 h [25]: 10000 ng/mL
concentration at 120 h [26]: 140 ng/mL
bioavailability (in vivo [27]): 80%
concentration at 120 h [28]: 1480 ng/mL
concentration at 24 h [29]: 70 ng/mL
Activity [30]: Non-Toxic
concentration at 24 h [31]: 750 ng/mL
concentration at 120 h [32]: 1410 ng/mL
concentration at 120 h [33]: 480 ng/mL
clearance [34]: 5 mL/min/kg
concentration at 120 h [35]: 1140 ng/mL
fraction unbound [36]: 0.05
concentration at 120 h [37]: 10800 ng/mL
EC50 (Rattus norvegicus [38]): 0.24 µg/mL (≈ 0.592 µM)
concentration at 24 h [39]: 270 ng/mL
concentration at 120 h [40]: 5180 ng/mL
Vdss [41]: 4.1 L/kg
Activity [42]: Non-Toxic
clearance (in vivo [43]): 7.17 mL/min/kg
concentration at 120 h [44]: 4230 ng/mL
Activity [45]: Non-Toxic
EC50 (Rattus norvegicus [46]): 1.4 µg/mL (≈ 3.45 µM)
half-life (in vivo [47]): 5.44 h

Reference: ChEMBL document CHEMBL5143671, “Discovery of (R)-(3-fluoropyrrolidin-1-yl)(6-((5-(trifluoromethyl)pyridin-2-yl)oxy)quinolin-2-yl)methanone (ABBV-318) and analogs as small molecule Nav1.7/ Nav1.8 blockers for the treatment of pain” (Bioorg Med Chem, 2022)
